According to ChEMBL document CHEMBL1141113, “High affinity electrophilic and photoactivatable covalent endocannabinoid probes for the CB1 receptor” (J Med Chem, 2005):

How the values were obtained:
Cannabinoid receptor 2 = Cannabinoid receptor 2 (Mus musculus, UniProt P47936); assay: Binding affinity towards mouse spleen cannabinoid receptor 2 in the presence of PMSF upon incubation for 15 min at 4 degree C in pH 7.4 using [3H]CP-55940; format: tissue-based
Cannabinoid receptor 1 = Cannabinoid receptor 1 (Rattus norvegicus, UniProt P20272); assay: Binding affinity towards rat brain cannabinoid receptor 1 in the presence of PMSF upon incubation for 15 min at 4 degree C in pH 7.4 using [3H]CP-55940
Cannabinoid receptor 1, sequence (P20272 whole entry): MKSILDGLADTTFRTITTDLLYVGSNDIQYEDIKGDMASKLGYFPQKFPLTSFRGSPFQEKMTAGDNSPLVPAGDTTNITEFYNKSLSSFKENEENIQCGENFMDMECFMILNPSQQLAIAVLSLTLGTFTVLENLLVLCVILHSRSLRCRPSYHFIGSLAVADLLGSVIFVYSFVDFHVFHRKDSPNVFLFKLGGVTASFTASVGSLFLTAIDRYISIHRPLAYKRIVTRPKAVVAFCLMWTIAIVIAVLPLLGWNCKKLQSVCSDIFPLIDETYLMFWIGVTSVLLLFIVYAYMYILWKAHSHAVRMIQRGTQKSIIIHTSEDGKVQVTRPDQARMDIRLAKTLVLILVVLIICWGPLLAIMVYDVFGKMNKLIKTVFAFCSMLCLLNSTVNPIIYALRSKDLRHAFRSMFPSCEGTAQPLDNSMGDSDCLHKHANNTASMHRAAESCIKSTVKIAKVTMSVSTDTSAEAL

Cannabinoid receptor 2, sequence (P47936 whole entry): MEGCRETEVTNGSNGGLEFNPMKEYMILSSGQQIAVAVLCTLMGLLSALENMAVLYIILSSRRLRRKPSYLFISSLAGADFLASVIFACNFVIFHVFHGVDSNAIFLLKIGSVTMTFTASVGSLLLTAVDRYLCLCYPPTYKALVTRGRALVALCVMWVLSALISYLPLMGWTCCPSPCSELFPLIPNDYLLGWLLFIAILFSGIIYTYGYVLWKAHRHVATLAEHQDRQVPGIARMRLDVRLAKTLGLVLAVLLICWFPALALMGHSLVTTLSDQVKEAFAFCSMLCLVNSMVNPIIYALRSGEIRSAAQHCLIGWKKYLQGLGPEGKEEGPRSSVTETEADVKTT

CCCCC/C=C\C/C=C\C/C=C\C/C=C\CCCC(=O)NC1CC1
Ki (Cannabinoid receptor 2): 157 nM | Ki (Cannabinoid receptor 1): 2.7 nM

O=C(CCC/C=C\C/C=C\C/C=C\C/C=C\CCCCCN=C=S)NC1CC1
Ki (Cannabinoid receptor 2): 48.5 nM | Ki (Cannabinoid receptor 1): 1.3 nM
